From ChEMBL document CHEMBL4052647, “Synthesis and pharmacological evaluation of novel chromone derivatives as balanced multifunctional agents against Alzheimer's disease” (Bioorg Med Chem, 2017)
Active and inactive are the calls of the source. No cut-off for these calls is given here.

Tests used:
[1] = Antioxidant activity assessed as trolox equivalent of […]-induced radical scavenging activity at 1 to 10 uM preincubated for 15 mins followed by AAPH addition measured every minute for 120 mins by ORAC fluorescein assay; type: functional
[2] = biological target: T1, Amine oxidase [flavin-containing] A (Homo sapiens, UniProt P21397); assay: Inhibition of recombinant human MAO-A expressed in baculovirus infected BTI insect cells using p-tyramine as substrate pretreated for 15 mins followed by substrate addition after 20 mins by Amplex red reagent based fluorimetric method
T1 sequence (P21397 whole entry): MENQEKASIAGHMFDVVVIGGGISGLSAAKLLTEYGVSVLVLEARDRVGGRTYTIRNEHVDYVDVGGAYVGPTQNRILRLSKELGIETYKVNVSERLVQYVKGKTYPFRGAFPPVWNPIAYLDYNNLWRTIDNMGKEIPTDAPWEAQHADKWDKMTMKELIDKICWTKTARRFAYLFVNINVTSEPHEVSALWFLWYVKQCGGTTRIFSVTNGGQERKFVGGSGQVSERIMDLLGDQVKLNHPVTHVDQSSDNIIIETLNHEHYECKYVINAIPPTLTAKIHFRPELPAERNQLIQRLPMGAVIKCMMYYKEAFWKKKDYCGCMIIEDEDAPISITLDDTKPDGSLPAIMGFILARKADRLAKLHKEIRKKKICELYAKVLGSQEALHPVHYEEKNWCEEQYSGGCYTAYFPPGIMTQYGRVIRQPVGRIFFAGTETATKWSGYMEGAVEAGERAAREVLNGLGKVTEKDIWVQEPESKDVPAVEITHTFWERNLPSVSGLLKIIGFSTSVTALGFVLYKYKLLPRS

[3] = biological target: T2, Amine oxidase [flavin-containing] B (Homo sapiens, UniProt P27338); assay: biochemical; type: cell-based
T2 sequence (P27338 whole entry): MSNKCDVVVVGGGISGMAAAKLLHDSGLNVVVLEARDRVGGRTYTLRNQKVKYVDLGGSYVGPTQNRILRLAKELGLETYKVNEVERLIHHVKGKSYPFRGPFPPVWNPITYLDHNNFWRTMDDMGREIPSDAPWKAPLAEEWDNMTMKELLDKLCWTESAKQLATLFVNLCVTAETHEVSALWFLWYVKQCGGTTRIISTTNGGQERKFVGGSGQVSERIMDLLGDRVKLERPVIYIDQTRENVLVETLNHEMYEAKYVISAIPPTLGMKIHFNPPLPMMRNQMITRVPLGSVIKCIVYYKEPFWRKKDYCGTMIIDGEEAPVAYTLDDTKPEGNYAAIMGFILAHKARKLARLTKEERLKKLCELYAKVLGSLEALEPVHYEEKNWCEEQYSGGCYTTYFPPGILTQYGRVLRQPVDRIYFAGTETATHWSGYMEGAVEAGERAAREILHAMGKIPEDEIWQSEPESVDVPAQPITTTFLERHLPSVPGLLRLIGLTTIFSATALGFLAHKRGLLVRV
Description: Inhibition of recombinant human MAO-B expressed in baculovirus infected BTI insect cells using p-tyramine as substrate pretreated for 15 mins followed by substrate addition after 20 mins by Amplex red reagent based fluorimetric method

[4] = organism: Homo sapiens; assay: Selectivity index, ratio of IC50 for recombinant human MAO-A expressed in baculovirus infected BTI insect cells to IC50 for recombinant human MAO-B expressed in baculovirus infected BTI insect cells
[5] = biological target: Amyloid-beta precursor protein (Homo sapiens) (UniProt P05067); assay: Inhibition of HFIP-pretreated amyloid beta (1 to 42) (unknown origin) self-induced aggregation at 20 uM after 46 to 48 hrs by thioflavin-T fluorescence assay relative to control
[6] = system: PC-12; assay: Cytotoxicity against rat PC12 cells at 20 uM after 24 hrs by MTT assay; type: cell-based; settings: pc-12, 24 h
[7] = system: PC-12; assay: Neuroprotective activity against H2O2-induced cell death in rat PC12 cells assessed as increase in cell viability at 10 uM pretreated for 24 hrs followed by H2O2 induction after 24 hrs by MTT assay; type: functional, cell-based
[8] = physchem; settings: PAMPA
[9] = physchem; settings: PAMPA, pH 7.4
[10] = Metal chelating activity assessed as inhibition of Cu2+-induced amyloid beta (1 to 42 residues) aggregation at 50 uM after 24 hrs by thioflavin-T fluorescence assay (reference value: 142%)
[11] = Metal chelating activity assessed as inhibition of Cu2+-induced amyloid beta (1 to 42 residues) aggregation by measuring reduction in amyloid fibrils at 50 uM […] by uranyl acetate staining based transmission electron microscopic analysis

Sequence of Amyloid-beta precursor protein (Homo sapiens) (P05067 whole entry): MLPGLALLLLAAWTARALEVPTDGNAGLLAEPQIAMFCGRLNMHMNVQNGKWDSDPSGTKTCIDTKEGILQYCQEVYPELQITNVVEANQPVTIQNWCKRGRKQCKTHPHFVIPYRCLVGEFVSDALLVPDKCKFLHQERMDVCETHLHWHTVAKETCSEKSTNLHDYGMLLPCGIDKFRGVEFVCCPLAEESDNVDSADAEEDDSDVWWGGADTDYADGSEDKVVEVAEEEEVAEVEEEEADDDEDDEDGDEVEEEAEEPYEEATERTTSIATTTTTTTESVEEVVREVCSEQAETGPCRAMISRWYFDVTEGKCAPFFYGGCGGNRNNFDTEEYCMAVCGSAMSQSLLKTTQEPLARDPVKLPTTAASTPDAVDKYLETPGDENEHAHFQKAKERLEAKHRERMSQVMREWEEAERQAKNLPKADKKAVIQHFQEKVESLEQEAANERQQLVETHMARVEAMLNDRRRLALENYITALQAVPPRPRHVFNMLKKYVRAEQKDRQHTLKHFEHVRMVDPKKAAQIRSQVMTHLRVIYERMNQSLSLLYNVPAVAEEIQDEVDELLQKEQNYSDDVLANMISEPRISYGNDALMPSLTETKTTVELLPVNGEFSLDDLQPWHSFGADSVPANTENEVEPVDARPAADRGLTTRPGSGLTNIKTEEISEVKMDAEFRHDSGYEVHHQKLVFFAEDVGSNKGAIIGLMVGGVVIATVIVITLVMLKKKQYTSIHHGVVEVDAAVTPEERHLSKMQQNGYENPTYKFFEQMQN

| Compound | Activity [1] [equiv] | IC50 [2] [µM] | IC50 [3] [µM] | Ratio IC50 [4] | inhibition [5] [%] | Activity [6] | Activity [7] | Papp at 16 h [8] [×10⁻⁶ cm/s] | Papp at 18 h, 25 ug/ml [9] [×10⁻⁶ cm/s] | inhibition [10] [%] | inhibition [11] |
| --- | --- | --- | --- | --- | --- | --- | --- | --- | --- | --- | --- |
| O=c1c(/C=N/c2ccc(Cl)cc2O)coc2ccc(Br)cc12 | 1.92 | 3.18 | 1.29 | 2.47 | 87.6 | Non-Toxic |  |  |  |  |  |
| Cc1ccc2occ(/C=N/c3ccc(Cl)cc3O)c(=O)c2c1 | 3.41 | 2.62 | 0.915 | 2.86 | 48.3 | Non-Toxic | Active | 5.57 |  |  |  |
| O=c1c(/C=N/c2ccccc2O)coc2ccccc12 | 2.39 | 6.81 | 31.5 | 0.22 | 65.2 | Non-Toxic |  |  |  |  |  |
| O=c1c(/C=N/c2cccc(Cl)c2O)coc2ccccc12 | 2.01 | 1.65 | 14.5 | 0.11 | 79.5 | Non-Toxic |  |  |  |  |  |
| O=c1c(/C=N/c2cccc(Cl)c2O)coc2ccc(Br)cc12 | 2.6 | 4.47 | 2.27 | 1.97 | 68.1 | Non-Toxic |  | 4.81 |  |  |  |
| NCCc1ccc(O)c(O)c1 [DOPAMINE] |  |  |  |  |  |  |  | 1.32 | 0.8 |  |  |
| Cc1ccc(/N=C/c2coc3ccccc3c2=O)c(O)c1 | 2.26 | 6.26 | 14.3 | 0.44 | 75.2 | Non-Toxic |  |  |  |  |  |
| O=c1c(/C=N/c2cc(F)ccc2O)coc2ccccc12 | 2.6 | 4.65 | 1.78 | 2.61 | 64.5 | Non-Toxic |  |  |  |  |  |
| Oc1c(I)cc(Cl)c2cccnc12 |  |  |  |  |  |  |  |  |  | 47.7 | Active |
| Cc1ccc2occ(/C=N/c3cc([N+](=O)[O-])ccc3O)c(=O)c2c1 | 2.73 | 7.27 | 1.64 | 4.43 | 71.2 | Non-Toxic |  |  |  |  |  |
| O=c1c(/C=N/c2cc(Cl)ccc2O)coc2ccccc12 | 2.24 | 1.94 | 19.2 | 0.11 | 68.1 | Non-Toxic |  |  |  |  |  |
| O=c1c(/C=N/c2ccc(F)cc2O)coc2ccc(Br)cc12 | 2.73 | 2.72 | 0.764 | 3.56 | 71.5 | Non-Toxic |  |  |  |  |  |
| Cc1ccc2occ(/C=N/c3ncccc3O)c(=O)c2c1 | 2.03 | 7.35 | 2.03 | 3.62 | 63.4 | Non-Toxic |  |  |  |  |  |
| O=c1c(/C=N/c2cc(Cl)ccc2O)coc2ccc(Br)cc12 | 2.16 | 4.55 | 3.28 | 1.39 | 72.1 | Non-Toxic |  |  |  |  |  |
| Cc1ccc2occ(/C=N/c3cc(Cl)ccc3O)c(=O)c2c1 | 2.61 | 2.15 | 0.634 | 3.39 | 71.9 | Non-Toxic |  |  |  |  |  |
| O=c1c(/C=N/c2ncccc2O)coc2ccc(Br)cc12 | 2.97 | 9.81 | 2.92 | 3.31 | 69.8 | Non-Toxic |  |  |  |  |  |
| COc1ccc2[nH]cc(CCNC(C)=O)c2c1 | 2.05 |  |  |  |  |  |  |  |  |  |  |
| Cc1ccc(O)c(/N=C/c2coc3ccccc3c2=O)c1 | 2.43 | 3.34 | 1.13 | 2.96 | 58.1 | Non-Toxic |  |  |  |  |  |
| O=c1c(/C=N/c2ccc(Cl)cc2O)coc2ccccc12 | 2.36 | 1.42 | 1.78 | 0.8 | 51.5 | Non-Toxic |  |  |  |  |  |
| CCn1cc(C(=O)O)c(=O)c2cc(F)c(N3CCNC(C)C3)c(F)c21 (centres undefined) [LOMEFLOXACIN] |  |  |  |  |  |  |  | 3.1 | 1.9 |  |  |
| O=c1c(/C=N/c2ncccc2O)coc2ccccc12 | 2.23 | 7.41 | 2.23 |  | 70.8 | Non-Toxic |  |  |  |  |  |
| Oc1ccc(/C=C/c2cc(O)cc(O)c2)cc1 |  |  |  |  | 57.2 |  |  |  |  | 63.3 | Active |
| Cc1ccc(/N=C/c2coc3ccc(C)cc3c2=O)c(O)c1 | 2.48 | 20.8 | 21.4 | 0.97 | 45.6 | Non-Toxic |  |  |  |  |  |
| O=c1c(/C=N/c2cc(F)ccc2O)coc2ccc(Br)cc12 | 2.68 | 3.09 | 0.825 | 3.75 | 79.1 | Non-Toxic |  |  |  |  |  |
| Cc1c(C)c2c(c(C)c1O)CCC(C)(C(=O)O)O2 (centres undefined) |  |  |  |  |  |  | Active |  |  |  |  |
| O=c1c(/C=N/c2cc3ccccc3cc2O)coc2ccccc12 | 1.82 | 3.35 | 6.42 | 0.52 | 66.5 | Non-Toxic |  |  |  |  |  |
| Cc1ccc2occ(/C=N/c3cc(F)ccc3O)c(=O)c2c1 | 2.92 | 3.83 | 2.34 | 1.64 | 87.3 | Non-Toxic |  |  |  |  |  |
